Consider four compounds from patent publication US12203125B2, “Device for determining antimicrobial susceptibility of a microorganism” (Q-linea AB, priority 2015, dated 2025).

Type in all cases: cell-based
For assay [1], the system named is gentamicin resistant E. coli strain. As to the kind of experiment: AST by imaging at different starting titers. The settings on record: starting concentration 2×10^6 CFU/ml (Lane B) vs 3×10^5 CFU/ml (Lane A), four hours growth. An excerpt: E. coli grown in blood+BCF media were recovered via a clean-up procedure to remove blood components and only retain viable bacteria in MH-media. Adjustment of the recovered bacteria were made to ensure different titers are used at start of the AST. AST assays were set up to a starting concentration of 3×10^5 CFU/ml (Lane A) and 2×10^6 CFU/ml (Lane B) of a gentamicin resistant E. coli strain. Aliquots of the recovered bacteria were dispensed into a microtiter plate with freeze dried antibiotics at varying concentrations and allowed to grow for four hours before imaging. Shown are microphotographs from a series of different concentration of antibiotics in two-fold dilutions ranging from 64 mg/l to 0.0625 mg/l of gentamicin.

In assay [2] the test system is clinical isolate QM171. As to the kind of experiment: Rapid AST: MIC calculated from microphotographs (biomass imaging, 0 to 4 hours) of isolate recovered from blood culture flask below 0.5 McFarland. The procedure: (§1) Dilutions of two different bacterial clinical isolates were seeded into an aerobic blood culture flask (Bactec, Becton Dickinson) at an estimated concentration of either 1 or 10 CFU/ml blood. Before seeding, the BCF had been filled with human blood from healthy donors. Aliquots from the dilution series were plated on agar and grown over night for viable count. Target concentration was 10 or 100 CFU seeded in 0.5 ml per BCF, corresponding to approximately 1 or 10 CFU/ml blood. The seeded BCF were allowed to incubate for 8 hours at 35° C. and a 5 ml aliquot were taken for subsequent AST. Another aliquot from the same BCF was used for determination of viable count after 8 hours' growth in the BCF.
(§2) A 5 ml aliquot of the cultured clinical isolate from the blood culture flask was filtered using a 100 μm filter to remove resin particles from the culture medium. The sample was thereafter mixed with a 10 ml of lysis buffer capable of selectively lysing any non-microbial cells present in the sample, and incubated for a sufficient amount of time for the non-microbial cells to be lysed. The resulting lysate was filtered through a 0.2 μm filter. Liquid components of the lysate (including components of the lysed non-microbial cells) passed through the filter, whereas microbial cells present in the sample were retained on the filter.
(§3) The retained microbial cells were re-suspended in liquid Mueller Hinton broth medium to form a microbial culture preparation, by back-flushing the filter with culture medium (i.e. flowing the culture medium in the opposite direction to filtration). 100 μl aliquots of the microbial culture preparation were then dispensed into wells of a microtiter plate.
(§4) The wells of the microtiter plate contained between 5 and 13 different concentrations of an antibiotic and different antibiotics. A negative control (i.e. comprising a blood sample with no seeded bacteria) and a positive control sample (i.e. an aliquot of the sample from a seeded BCF but into a well with no antimicrobial agent) were also set up at this stage.
(§5) Focus was performed on each inoculated well and each well was read at intervals of 1 hour. A total of 5 images were taken at time points from 0 to 4 hours after the initiation of the AST assay. The degree of microbial growth in each growth condition was monitored by imaging, by measuring the amount of microbial biomass in each well.
(§6) Microphotographs from the different wells were analysed to generate a numerical value of the biomass in the well and this was used as a marker of growth. From the growth a minimal inhibitory concentration was determined and compared to MIC obtained using a reference method, broth micro-dilution. […] A sample was determined to Pass (P) if within +/−1 two-fold dilution from the reference MIC.

Assay [3] relates to clinical isolate QM006. Described as above. On the procedure: as §1, §2, §3, §4, §5, §6
Assay [4] relates to clinical isolate QM006. As to the kind of experiment: Reference MIC, broth micro-dilution (ISO 20776, turbidity after 16-20 hours). The settings on record: isolate QM006, broth micro-dilution from 0.5 McFarland, 16-20 hours growth.
The subject of assay [5] is clinical isolate QM171. The description is as above. The settings on record: isolate QM171, broth micro-dilution from 0.5 McFarland, 16-20 hours growth. The procedure:
as §6
For orientation: Dilution methods test growth across graded concentrations, often in twofold steps.

Where [6] appears, read: isolate QM171, experiment repeat no. 1, imaging after 4 h.
The mark [7] stands for this setting: isolate QM171, experiment repeat no. 2, imaging after 4 h.
Where [8] appears, read: isolate QM171, experiment repeat no. 3, imaging after 4 h.
Where [9] appears, read: isolate QM171, experiment repeat no. 4, imaging after 4 h.
Where [10] appears, read: isolate QM171, experiment repeat no. 5, imaging after 4 h.
[11] abbreviates: isolate QM171, experiment repeat no. 6, imaging after 4 h.
Where [12] appears, read: isolate QM171, experiment repeat no. 7, imaging after 4 h.
The mark [13] stands for this setting: isolate QM006, experiment repeat no. 1, imaging after 4 h.
Setting [14] is: isolate QM006, experiment repeat no. 2, imaging after 4 h.
[15] abbreviates: isolate QM006, experiment repeat no. 3, imaging after 4 h.
Setting [16] is: isolate QM006, experiment repeat no. 4, imaging after 4 h.
Where [17] appears, read: isolate QM006, experiment repeat no. 5, imaging after 4 h.
[18] abbreviates: isolate QM006, experiment repeat no. 6, imaging after 4 h.
Setting [19] is: isolate QM006, experiment repeat no. 7, imaging after 4 h.
Setting [20] is: isolate QM006, experiment repeat no. 8, imaging after 4 h.
Where [21] appears, read: isolate QM006, experiment repeat no. 9, imaging after 4 h.

In brackets after ≈: the same amount, converted by molar mass. Where only a bound is given, the exact number is not on record here.

Take Gentamicin: the “MIC value at higher bacterial titer compared with lower titer” value in assay [1] is “higher MIC value”. Also, the MIC calculated from microphotographs in assay [2] (setting [6]), in assay [2] (setting [7]), in assay [2] (setting [8]), in assay [2] (setting [9]), in assay [2] (setting [10]) and in assay [2] (setting [11]) was 0.5 µg/mL in each case. The MIC calculated from microphotographs was 0.25 µg/mL in assay [2] (setting [12]); 16 µg/mL in assay [3] (setting [13]); 16 µg/mL in assay [3] (setting [14]); 16 µg/mL in assay [3] (setting [15]); 16 µg/mL in assay [3] (setting [16]); 16 µg/mL in assay [3] (setting [17]). Further, the MIC calculated from microphotographs in assay [3] (setting [18]), in assay [3] (setting [19]), in assay [3] (setting [20]) and in assay [3] (setting [21]) was 16 µg/mL throughout. The Reference MIC in assay [4] is over 16 µg/mL; in assay [5], at most 0.5 µg/mL.

With `C[C@@H](O)[C@H]1C(=O)N2C(C(=O)O)=C(S[C@@H]3CN[C@H](C(=O)N(C)C)C3)[C@H](C)[C@H]12` [Meropenem], the MIC calculated from microphotographs in assay [2] (setting [6]), in assay [2] (setting [7]), in assay [2] (setting [8]), in assay [2] (setting [9]), in assay [2] (setting [10]) and in assay [2] (setting [11]) was at most 0.5 µg/mL throughout. Also, the MIC calculated from microphotographs was at most 0.5 µg/mL in assay [2] (setting [12]); at most 0.5 µg/mL in assay [3] (setting [13]); at most 0.5 µg/mL in assay [3] (setting [14]); at most 0.5 µg/mL in assay [3] (setting [15]); 1 µg/mL (≈ 2.61 µM) in assay [3] (setting [16]); at most 0.5 µg/mL in assay [3] (setting [17]). The MIC calculated from microphotographs in assay [3] (setting [18]), in assay [3] (setting [19]), in assay [3] (setting [20]) and in assay [3] (setting [21]) was at most 0.5 µg/mL in each case. Further, the Reference MIC in assay [4] is at most 0.5 µg/mL; in assay [5] it was 1 µg/mL.

On to `CC(C)(O/N=C(\C(=O)N[C@@H]1C(=O)N2C(C(=O)[O-])=C(C[n+]3ccccc3)CS[C@H]12)c1csc(N)n1)C(=O)O` [Ceftazidime], for which the MIC calculated from microphotographs in assay [2] (setting [6]), in assay [2] (setting [7]), in assay [2] (setting [8]), in assay [2] (setting [9]), in assay [2] (setting [10]) and in assay [2] (setting [11]) was 2 µg/mL (≈ 3.66 µM) each time. Also, the MIC calculated from microphotographs in assay [2] (setting [12]) is 1 µg/mL (≈ 1.83 µM); in assay [3] (setting [13]), 8 µg/mL (≈ 14.6 µM); in assay [3] (setting [14]), 16 µg/mL (≈ 29.3 µM); in assay [3] (setting [15]) it was 8 µg/mL (≈ 14.6 µM); in assay [3] (setting [16]) it was 8 µg/mL (≈ 14.6 µM); in assay [3] (setting [17]), 8 µg/mL (≈ 14.6 µM). Moreover, the MIC calculated from microphotographs is 16 µg/mL (≈ 29.3 µM) in assay [3] (setting [18]), 8 µg/mL (≈ 14.6 µM) in assay [3] (setting [19]), 16 µg/mL (≈ 29.3 µM) in assay [3] (setting [20]) and 8 µg/mL (≈ 14.6 µM) in assay [3] (setting [21]). Besides, the Reference MIC in assay [4] was found to be 16 µg/mL; in assay [5], 2 µg/mL.

As to `CO/N=C(\C(=O)N[C@@H]1C(=O)N2C(C(=O)O)=C(COC(C)=O)CS[C@H]12)c1csc(N)n1` [Cefotaxime], the MIC calculated from microphotographs in assay [2] (setting [6]) is 8 µg/mL (≈ 17.6 µM); in assay [2] (setting [7]) it was over 16 µg/mL; in assay [2] (setting [8]), over 16 µg/mL; in assay [2] (setting [9]) it was over 16 µg/mL; in assay [2] (setting [10]), over 16 µg/mL; in assay [2] (setting [11]), 16 µg/mL (≈ 35.1 µM). The MIC calculated from microphotographs in assay [2] (setting [12]) was 16 µg/mL (≈ 35.1 µM); in assay [3] (setting [13]) it was over 8 µg/mL; in assay [3] (setting [14]) it was over 16 µg/mL; in assay [3] (setting [15]) it was over 16 µg/mL; in assay [3] (setting [16]) it was over 16 µg/mL; in assay [3] (setting [17]), over 16 µg/mL. The MIC calculated from microphotographs in assay [3] (setting [18]), in assay [3] (setting [19]), in assay [3] (setting [20]) and in assay [3] (setting [21]) was over 16 µg/mL in each case. Further, the Reference MIC in assay [4] and in assay [5] was over 8 µg/mL in each case.
